# Legend:
# rice [1] = test: Test B flooded paddy test; type: in vivo, Oryza sativa; conditions: 1000 g ai/ha, visual rating, scale 0 to 100 (0 no effect, 100 complete control), 13 to 15 days
# How it was run: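 Plants grow to 1- to 4-leaf stage (2–18 cm) for postemergence spraying, or to 2-leaf stage for the paddy test. Formulated compound is applied. Greenhouse holding lasts 13–15 days. Response is scored visually relative to controls, 0 no effect to 100 complete control; a dash means no result.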
# pigweed = test: Test B pre-/postemergence herbicide test; type: in vivo, Amaranthus retroflexus; conditions: for Pigweed plant response rating: postemergence, visual rating
# How it was run: (§1)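 Pre: seeds sown, then sprayed. Post: 1–4-leaf plants (2–18 cm) sprayed at the same time. Paddy: flooded, treated at 2-leaf stage. Formulation: non-phytotoxic solvent with surfactant. Greenhouse 13–15 days; visual 0–100 score relative to controls.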
# barnyardgrass [2] = test: Test B flooded paddy test; type: in vivo, Echinochloa crus-galli; conditions: 1000 g ai/ha, visual rating, scale 0 to 100 (0 no effect, 100 complete control), 13 to 15 days
# How it was run: (§2)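 Read-out: visual comparison with controls, scored 0 to 100, where 100 means complete control and 0 no effect. Formulated chemicals were applied postemergence to plants 2–18 cm tall (1- to 4-leaf), or to flooded-paddy plants at the 2-leaf stage, then held 13 to 15 days under glass.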
# cocklebur = test: Test B pre-/postemergence herbicide test; type: in vivo, Xanthium strumarium; conditions: for Cocklebur plant response rating: postemergence, visual rating
# How it was run: as §1
# lambsquarters = test: Test B pre-/postemergence herbicide test; type: in vivo, Chenopodium album; conditions: for Lambsquarters plant response rating: postemergence, visual rating
# How it was run: as §1
# barnyardgrass [3] = test: Test B pre-/postemergence herbicide test; type: in vivo, Echinochloa crus-galli; conditions: for Barnyardgrass plant response rating: postemergence, visual rating
# How it was run: as §1
# giant foxtail = test: Test B pre-/postemergence herbicide test; type: in vivo, Setaria faberi; conditions: for Foxtail, Giant plant response rating: postemergence, visual rating
# How it was run: as §1
# large crabgrass = test: Test B pre-/postemergence herbicide test; type: in vivo, Digitaria sanguinalis; conditions: for Crabgrass, Large plant response rating: postemergence, visual rating
# How it was run: as §1
# wheat = test: Test B postemergence herbicide test; type: in vivo, Triticum aestivum; parameters: key to Wheat plant response rating: 0 = no effect, 100 = complete control; conditions: scale 0 (no effect) to 100 (complete control); for Wheat plant response rating: postemergence, visual rating
# How it was run: (§3)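 Greenhouse test; postemergence application to plants at 1–4 leaves (2–18 cm); paddy species at 2 leaves; evaluated visually vs controls at 13–15 days; scale 0–100 (100 = complete control).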
# Surinam grass = test: Test B pre-/postemergence herbicide test; type: in vivo, Urochloa decumbens; conditions: for Surinam Grass plant response rating: postemergence, visual rating
# How it was run: as §1
# [4] = system: small flower umbrella sedge; test: Test B flooded paddy test; type: in vivo, Cyperus difformis; conditions: 1000 g ai/ha, visual rating, scale 0 to 100 (0 no effect, 100 complete control), 13 to 15 days
# How it was run: as §2
# ducksalad = test: Test B flooded paddy test; type: in vivo, Heteranthera limosa; conditions: 1000 g ai/ha, visual rating, scale 0 to 100 (0 no effect, 100 complete control), 13 to 15 days
# How it was run: as §2
# rice [5] = test: Test B pre-/postemergence herbicide test; type: in vivo, Oryza sativa; conditions: preemergence
# How it was run: as §1
# velvetleaf = test: Test B pre-/postemergence herbicide test; type: in vivo, Abutilon theophrasti; conditions: for Velvetleaf plant response rating: postemergence, visual rating
# How it was run: as §1
# blackgrass = test: Test B postemergence herbicide test; type: in vivo, Alopecurus myosuroides; conditions: scale 0 (no effect) to 100 (complete control); for Blackgrass plant response rating: postemergence, visual rating
# How it was run: as §2
# morningglory = test: Test B pre-/postemergence herbicide test; type: in vivo, Ipomoea coccinea; conditions: for Morningglory plant response rating: postemergence, visual rating
# How it was run: as §1
# wild oat = test: Test B postemergence herbicide test; type: in vivo, Avena fatua; conditions: scale 0 (no effect) to 100 (complete control); for Oat, Wild plant response rating: postemergence, visual rating
# How it was run: as §3
# corn = test: Test B pre-/postemergence herbicide test; type: in vivo, Zea mays; conditions: for Corn plant response rating: postemergence, visual rating
# How it was run: as §1
# [6] = 500 g ai/ha, visual rating 0-100, 0 no effect, 100 complete control, preemergence
# [7] = Postemergence, 500 g ai/ha, visual rating after 13 to 15 days, scale 0 (no effect) to 100 (complete control)
# [8] = 125 g ai/ha, scale 0 (no effect) to 100 (complete control)
# [9] = preemergence, 125 g ai/ha, 0 to 100 scale, 0 is no effect, 100 is complete control
# [10] = Postemergence, 500 g ai/ha, visual rating after 13 to 15 days
# [11] = 500 g ai/ha, visual rating 0-100, 0 no effect, 100 complete control
# [12] = 125 g ai/ha, 0 to 100 scale, 0 is no effect, 100 is complete control
# [13] = 500 g ai/ha, scale 0 (no effect) to 100 (complete control)
# [14] = 125 g ai/ha, 0 = no effect, 100 = complete control, preemergence
structure (smiles),measurement,setting,value
CCn1nc(C(C)(C)C)cc1C(=O)Nc1ccc(C)c(C(=O)OC(C)C)c1 [Compound 100],Rice plant response rating,rice [1],0
same,"Plant response rating, Pigweed",pigweed; [6],0
same,"Plant response rating, Pigweed",pigweed; [7],60
same,Pigweed plant response rating,pigweed; [8],0
same,"Plant response rating, Pigweed",pigweed; [9],0
same,Barnyardgrass plant response rating,barnyardgrass [2],0
same,"Plant response rating, Cocklebur",cocklebur; [6],0
same,"Plant response rating, Cocklebur",cocklebur; [7],0
same,Cocklebur plant response rating,cocklebur; [8],0
same,"Plant response rating, Cocklebur",cocklebur; [9],0
same,"Plant response rating, Lambsquarters",lambsquarters; [6],0
same,"Plant response rating, Lambsquarters",lambsquarters; [7],50
same,Lambsquarters plant response rating,lambsquarters; [8],0
same,"Plant response rating, Lambsquarters",lambsquarters; [9],0
same,"Plant response rating, Barnyardgrass",barnyardgrass [3]; [6],0
same,"Plant response rating, Barnyardgrass",barnyardgrass [3]; [7],0
same,Barnyardgrass plant response rating,barnyardgrass [3]; [8],0
same,"Plant response rating, Barnyardgrass",barnyardgrass [3]; [9],0
same,"Plant response rating, Foxtail, Giant",giant foxtail; [6],0
same,"Plant response rating, Foxtail, Giant",giant foxtail; [7],0
same,"Foxtail, Giant plant response rating",giant foxtail; [8],0
same,"Plant response rating, Foxtail, Giant",giant foxtail; [9],0
same,"Plant response rating, Crabgrass, Large",large crabgrass; [6],0
same,"Plant response rating, Crabgrass, Large",large crabgrass; [7],0
same,"Crabgrass, Large plant response rating",large crabgrass; [8],0
same,"Plant response rating, Crabgrass, Large",large crabgrass; [9],0
same,"Plant response rating, Wheat",wheat; [10],10
same,Wheat plant response rating,wheat; 125 g ai/ha,10
same,"Plant response rating, Surinam Grass",Surinam grass; [6],0
same,"Plant response rating, Surinam Grass",Surinam grass; [7],20
same,Surinam Grass plant response rating,Surinam grass; [8],0
same,"Plant response rating, Surinam Grass",Surinam grass; [9],0
same,"Sedge, Umbrella plant response rating",[4],0
same,Ducksalad plant response rating,ducksalad,0
same,"Plant response rating, Rice",rice [5]; [11],0
same,"Plant response rating, Rice",rice [5]; [12],0
same,"Plant response rating, Velvetleaf",velvetleaf; [6],0
same,"Plant response rating, Velvetleaf",velvetleaf; [7],0
same,Velvetleaf plant response rating,velvetleaf; [8],0
same,"Plant response rating, Velvetleaf",velvetleaf; [9],0
same,"Plant response rating, Blackgrass",blackgrass; [10],30
same,Blackgrass plant response rating,blackgrass; 125 g ai/ha,10
same,"Plant response rating, Morningglory",morningglory; [6],0
same,"Plant response rating, Morningglory",morningglory; [7],0
same,Morningglory plant response rating,morningglory; [8],0
same,"Plant response rating, Morningglory",morningglory; [9],0
same,"Plant response rating, Oat, Wild",wild oat; [10],40
same,"Oat, Wild plant response rating",wild oat; 125 g ai/ha,20
same,"Plant response rating, Corn",corn; [6],0
same,"Plant response rating, Corn",corn; [7],0
same,Corn plant response rating,corn; [8],0
same,"Plant response rating, Corn",corn; [9],0
C=CCN(C)C(=O)c1cccc(NC(=O)c2cc(C(C)(C)C)nn2CC)n1 [Compound 163],Rice plant response rating,rice [1],60
same,"Plant response rating, Pigweed",pigweed; [6],100
same,Pigweed plant response rating,pigweed; [8],60
same,Pigweed plant response rating,pigweed; [13],80
same,"Plant response rating, Pigweed",pigweed; [9],90
same,Barnyardgrass plant response rating,barnyardgrass [2],70
same,"Plant response rating, Cocklebur",cocklebur; [6],70
same,Cocklebur plant response rating,cocklebur; [8],10
same,Cocklebur plant response rating,cocklebur; [13],60
same,"Plant response rating, Cocklebur",cocklebur; [9],70
same,"Plant response rating, Lambsquarters",lambsquarters; [6],100
same,Lambsquarters plant response rating,lambsquarters; [8],50
same,Lambsquarters plant response rating,lambsquarters; [13],80
same,"Plant response rating, Lambsquarters",lambsquarters; [9],80
same,"Plant response rating, Barnyardgrass",barnyardgrass [3]; [6],90
same,Barnyardgrass plant response rating,barnyardgrass [3]; [8],0
same,Barnyardgrass plant response rating,barnyardgrass [3]; [13],0
same,"Plant response rating, Barnyardgrass",barnyardgrass [3]; [9],60
same,"Plant response rating, Foxtail, Giant",giant foxtail; [6],80
same,"Foxtail, Giant plant response rating",giant foxtail; [8],0
same,"Foxtail, Giant plant response rating",giant foxtail; [13],40
same,"Plant response rating, Foxtail, Giant",giant foxtail; [9],20
same,"Plant response rating, Crabgrass, Large",large crabgrass; [6],90
same,"Crabgrass, Large plant response rating",large crabgrass; [8],20
same,"Crabgrass, Large plant response rating",large crabgrass; [13],40
same,"Plant response rating, Crabgrass, Large",large crabgrass; [9],60
same,Wheat plant response rating,wheat; 500 g ai/ha,10
same,"Plant response rating, Surinam Grass",Surinam grass; [6],70
same,Surinam Grass plant response rating,Surinam grass; [8],0
same,Surinam Grass plant response rating,Surinam grass; [13],40
same,"Plant response rating, Surinam Grass",Surinam grass; [9],50
same,"Sedge, Umbrella plant response rating",[4],70
same,Ducksalad plant response rating,ducksalad,80
same,"Plant response rating, Rice",rice [5]; [11],80
same,"Plant response rating, Rice",rice [5]; [12],80
same,"Plant response rating, Velvetleaf",velvetleaf; [6],90
same,Velvetleaf plant response rating,velvetleaf; [8],40
same,Velvetleaf plant response rating,velvetleaf; [13],80
same,"Plant response rating, Velvetleaf",velvetleaf; [9],70
same,Blackgrass plant response rating,blackgrass; 125 g ai/ha,10
same,Blackgrass plant response rating,blackgrass; 500 g ai/ha,50
same,"Plant response rating, Morningglory",morningglory; [6],70
same,Morningglory plant response rating,morningglory; [8],0
same,Morningglory plant response rating,morningglory; [13],0
same,"Plant response rating, Morningglory",morningglory; [9],60
same,"Oat, Wild plant response rating",wild oat; 125 g ai/ha,10
same,"Oat, Wild plant response rating",wild oat; 500 g ai/ha,30
same,"Plant response rating, Corn",corn; [6],40
same,Corn plant response rating,corn; [8],0
same,Corn plant response rating,corn; [13],0
same,"Plant response rating, Corn",corn; [9],0
CCN(CC)C(=O)c1cccc(NC(=O)c2cn(C(C)(C)C)nc2C)c1 [Compound 184],Rice plant response rating,rice [1],0
same,Pigweed plant response rating (0 to 100 scale),pigweed; [14],100
same,"Plant response rating, Pigweed",pigweed; [6],100
same,Pigweed plant response rating,pigweed; [8],20
same,Pigweed plant response rating,pigweed; [13],60
same,Barnyardgrass plant response rating,barnyardgrass [2],0
same,Cocklebur plant response rating (0 to 100 scale),cocklebur; [14],0
same,"Plant response rating, Cocklebur",cocklebur; [6],0
same,Cocklebur plant response rating,cocklebur; [8],30
same,Cocklebur plant response rating,cocklebur; [13],60
same,Lambsquarters plant response rating (0 to 100 scale),lambsquarters; [14],50
same,"Plant response rating, Lambsquarters",lambsquarters; [6],80
same,Lambsquarters plant response rating,lambsquarters; [8],60
same,Lambsquarters plant response rating,lambsquarters; [13],70
same,Barnyardgrass plant response rating (0 to 100 scale),barnyardgrass [3]; [14],0
same,"Plant response rating, Barnyardgrass",barnyardgrass [3]; [6],60
same,Barnyardgrass plant response rating,barnyardgrass [3]; [8],0
same,Barnyardgrass plant response rating,barnyardgrass [3]; [13],0
same,"Foxtail, Giant plant response rating (0 to 100 scale)",giant foxtail; [14],0
same,"Plant response rating, Foxtail, Giant",giant foxtail; [6],70
same,"Foxtail, Giant plant response rating",giant foxtail; [8],30
same,"Foxtail, Giant plant response rating",giant foxtail; [13],40
same,"Crabgrass, Large plant response rating (0 to 100 scale)",large crabgrass; [14],30
same,"Plant response rating, Crabgrass, Large",large crabgrass; [6],100
same,"Crabgrass, Large plant response rating",large crabgrass; [8],20
same,"Crabgrass, Large plant response rating",large crabgrass; [13],30
same,Wheat plant response rating,wheat; 125 g ai/ha,0
same,Wheat plant response rating,wheat; 500 g ai/ha,0
same,Surinam Grass plant response rating (0 to 100 scale),Surinam grass; [14],0
same,"Plant response rating, Surinam Grass",Surinam grass; [6],30
same,Surinam Grass plant response rating,Surinam grass; [8],10
same,Surinam Grass plant response rating,Surinam grass; [13],20
same,"Sedge, Umbrella plant response rating",[4],30
same,Ducksalad plant response rating,ducksalad,0
same,Rice plant response rating (0 to 100 scale),"rice [5]; 125 g ai/ha, 0 = no effect, 100 = complete control",0
same,"Plant response rating, Rice",rice [5]; [11],0
same,Velvetleaf plant response rating (0 to 100 scale),velvetleaf; [14],10
same,"Plant response rating, Velvetleaf",velvetleaf; [6],50
same,Velvetleaf plant response rating,velvetleaf; [8],30
same,Velvetleaf plant response rating,velvetleaf; [13],60
same,Blackgrass plant response rating,blackgrass; 125 g ai/ha,0
same,Blackgrass plant response rating,blackgrass; 500 g ai/ha,0
same,Morningglory plant response rating (0 to 100 scale),morningglory; [14],10
same,"Plant response rating, Morningglory",morningglory; [6],50
same,Morningglory plant response rating,morningglory; [8],0
same,Morningglory plant response rating,morningglory; [13],60
same,"Oat, Wild plant response rating",wild oat; 125 g ai/ha,20
same,"Oat, Wild plant response rating",wild oat; 500 g ai/ha,30
same,Corn plant response rating (0 to 100 scale),corn; [14],0
same,"Plant response rating, Corn",corn; [6],0
same,Corn plant response rating,corn; [8],20
same,Corn plant response rating,corn; [13],30

# Source: patent publication US20060069132A1, “Azolecarboxamide herbicides” (priority 2004, published 2006)
